# Source: ChEMBL document CHEMBL1201862, “PubChem BioAssay data set” (2004)
# The source made the active and inactive calls.
# Legend:
# [1] = target: T1, Mucolipin-3 (Homo sapiens, UniProt Q8TDD5); test: Dose response cell-based high-throughput screening assay for agonists of the transient receptor potential channel ML3 (TRPML3). [Related pubchem assays: 1526, 1424, 1448 ]; assay type: functional
# T1 sequence (Q8TDD5 whole entry): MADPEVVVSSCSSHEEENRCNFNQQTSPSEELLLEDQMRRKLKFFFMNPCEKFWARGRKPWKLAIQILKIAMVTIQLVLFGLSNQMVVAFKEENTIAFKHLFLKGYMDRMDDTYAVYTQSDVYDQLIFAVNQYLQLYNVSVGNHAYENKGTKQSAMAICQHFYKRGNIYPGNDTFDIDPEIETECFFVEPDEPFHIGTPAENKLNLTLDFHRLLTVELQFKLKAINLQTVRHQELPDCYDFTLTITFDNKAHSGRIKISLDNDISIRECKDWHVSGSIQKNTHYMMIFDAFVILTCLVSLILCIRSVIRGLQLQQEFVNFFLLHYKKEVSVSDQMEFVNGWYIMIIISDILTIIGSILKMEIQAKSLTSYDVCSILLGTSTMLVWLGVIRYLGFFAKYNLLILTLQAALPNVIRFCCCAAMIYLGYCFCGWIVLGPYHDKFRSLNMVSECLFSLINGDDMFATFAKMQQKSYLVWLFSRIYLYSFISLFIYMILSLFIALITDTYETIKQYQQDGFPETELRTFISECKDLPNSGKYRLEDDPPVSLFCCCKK
# [2] = target: T2, Beta-galactosidase (Escherichia coli, UniProt Q8VNN2); test: detection-enzyme interference by beta-gal modulators – biochemical, E. coli enzyme, set 3, artefact control for CCR6 antagonist project, dose response (AID 504712); assay type: functional
# T2 sequence (Q8VNN2 whole entry, the tested form may be a part): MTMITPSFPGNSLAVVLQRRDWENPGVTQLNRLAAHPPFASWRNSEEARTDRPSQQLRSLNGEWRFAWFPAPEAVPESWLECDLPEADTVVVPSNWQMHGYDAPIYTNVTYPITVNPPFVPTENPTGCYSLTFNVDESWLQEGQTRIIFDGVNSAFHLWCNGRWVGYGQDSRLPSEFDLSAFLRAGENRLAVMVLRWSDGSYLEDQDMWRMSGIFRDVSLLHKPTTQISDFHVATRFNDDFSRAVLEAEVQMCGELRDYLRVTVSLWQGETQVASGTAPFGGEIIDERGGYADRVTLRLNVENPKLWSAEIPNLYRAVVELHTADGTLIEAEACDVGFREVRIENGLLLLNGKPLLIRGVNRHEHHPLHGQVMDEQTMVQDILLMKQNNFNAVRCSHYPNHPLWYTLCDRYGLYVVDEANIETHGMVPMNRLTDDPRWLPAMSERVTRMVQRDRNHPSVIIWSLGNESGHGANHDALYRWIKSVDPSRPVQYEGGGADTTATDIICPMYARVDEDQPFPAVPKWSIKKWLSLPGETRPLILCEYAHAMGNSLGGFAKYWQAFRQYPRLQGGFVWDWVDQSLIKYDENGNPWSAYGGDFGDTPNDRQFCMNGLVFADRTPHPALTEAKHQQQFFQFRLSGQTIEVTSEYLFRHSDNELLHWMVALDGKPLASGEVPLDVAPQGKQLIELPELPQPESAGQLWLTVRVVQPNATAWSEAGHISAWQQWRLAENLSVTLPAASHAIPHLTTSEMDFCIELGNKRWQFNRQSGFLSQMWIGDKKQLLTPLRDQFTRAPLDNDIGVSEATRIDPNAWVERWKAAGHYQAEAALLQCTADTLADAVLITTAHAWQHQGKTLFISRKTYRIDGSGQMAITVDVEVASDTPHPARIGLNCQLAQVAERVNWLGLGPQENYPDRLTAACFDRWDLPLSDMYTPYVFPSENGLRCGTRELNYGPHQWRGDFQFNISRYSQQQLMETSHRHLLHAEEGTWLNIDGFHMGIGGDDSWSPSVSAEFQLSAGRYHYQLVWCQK
# [3] = target: Photoreceptor-specific nuclear receptor (Homo sapiens, UniProt Q9Y5X4); assay type: functional, cell-based;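 further: CHO-S cells with Gal4-NCOR and VP16-NR2E3 two-hybrid luciferase reporter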
# Photoreceptor-specific nuclear receptor, sequence (Q9Y5X4 whole entry, the tested form may be a part): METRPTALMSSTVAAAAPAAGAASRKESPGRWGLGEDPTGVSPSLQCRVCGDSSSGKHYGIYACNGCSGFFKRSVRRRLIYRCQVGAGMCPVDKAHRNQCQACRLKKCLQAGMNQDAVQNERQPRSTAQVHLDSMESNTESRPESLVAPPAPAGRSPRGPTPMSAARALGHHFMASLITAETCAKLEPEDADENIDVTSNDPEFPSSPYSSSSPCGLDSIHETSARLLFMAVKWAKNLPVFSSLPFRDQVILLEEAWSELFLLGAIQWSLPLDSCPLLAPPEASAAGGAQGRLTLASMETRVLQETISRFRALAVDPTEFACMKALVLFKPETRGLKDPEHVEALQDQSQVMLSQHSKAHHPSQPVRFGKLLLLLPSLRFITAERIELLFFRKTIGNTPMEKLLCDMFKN
# [4] = target: Ion channel NompC (Danio rerio, UniProt Q7T1G6); test: Fluorescence counterscreen assay for TRPML3 agonists: dose response cell-based high-throughput screening assay to identify agonists of the transient receptor potential channel N1 (TRPN1). [Related pubchem assays: 1526, 1424, 1448 ]; assay type: functional
# [5] = target: T3, Kappa-type opioid receptor (Homo sapiens, UniProt P41145); assay type: functional
# T3 sequence (P41145 whole entry): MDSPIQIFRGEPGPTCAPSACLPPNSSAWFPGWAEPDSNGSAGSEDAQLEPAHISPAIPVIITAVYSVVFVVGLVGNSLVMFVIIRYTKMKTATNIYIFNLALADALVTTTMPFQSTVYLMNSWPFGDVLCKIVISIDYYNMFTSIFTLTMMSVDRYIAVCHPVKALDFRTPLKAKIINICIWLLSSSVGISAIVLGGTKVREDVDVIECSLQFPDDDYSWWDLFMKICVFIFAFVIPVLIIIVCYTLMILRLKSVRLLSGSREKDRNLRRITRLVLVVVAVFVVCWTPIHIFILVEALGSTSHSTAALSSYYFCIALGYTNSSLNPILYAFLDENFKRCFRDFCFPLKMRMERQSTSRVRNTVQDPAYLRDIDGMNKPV
# [6] = target: T2, Beta-galactosidase; assay type: functional
# [7] = target: T3, Kappa-type opioid receptor; assay type: functional; remark: listed apart in the source
# [8] = target: Hexokinase-1 (Homo sapiens, UniProt P19367); test: HK1 enzyme activation by HKDC1 hits – biochemical, selectivity assay for HKDC1 activator project, dose response (AID 504762); assay type: functional
# Hexokinase-1, sequence (P19367 whole entry): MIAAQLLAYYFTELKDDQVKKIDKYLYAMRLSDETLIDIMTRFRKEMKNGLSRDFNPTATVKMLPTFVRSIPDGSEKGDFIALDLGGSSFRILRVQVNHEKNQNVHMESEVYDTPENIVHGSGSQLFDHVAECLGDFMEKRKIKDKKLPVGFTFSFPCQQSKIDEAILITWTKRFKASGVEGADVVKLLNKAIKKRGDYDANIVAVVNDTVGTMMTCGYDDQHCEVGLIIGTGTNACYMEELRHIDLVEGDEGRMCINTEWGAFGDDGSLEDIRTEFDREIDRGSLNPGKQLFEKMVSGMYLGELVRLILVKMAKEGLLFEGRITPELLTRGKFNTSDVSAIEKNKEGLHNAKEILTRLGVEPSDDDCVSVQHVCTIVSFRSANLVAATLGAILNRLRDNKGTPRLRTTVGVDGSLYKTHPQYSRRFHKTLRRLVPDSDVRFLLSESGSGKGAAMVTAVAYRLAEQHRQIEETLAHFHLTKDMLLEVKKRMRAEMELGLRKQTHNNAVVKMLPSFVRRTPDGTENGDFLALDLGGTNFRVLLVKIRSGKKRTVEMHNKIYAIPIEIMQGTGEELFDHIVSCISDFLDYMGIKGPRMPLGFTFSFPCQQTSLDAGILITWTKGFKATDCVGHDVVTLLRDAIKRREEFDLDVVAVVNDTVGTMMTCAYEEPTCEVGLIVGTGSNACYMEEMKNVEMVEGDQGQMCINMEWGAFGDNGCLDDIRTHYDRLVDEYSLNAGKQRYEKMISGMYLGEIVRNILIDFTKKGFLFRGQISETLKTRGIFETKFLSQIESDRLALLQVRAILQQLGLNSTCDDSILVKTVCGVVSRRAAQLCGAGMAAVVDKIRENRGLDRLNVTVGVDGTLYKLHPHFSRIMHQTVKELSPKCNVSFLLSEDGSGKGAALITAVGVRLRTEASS
# [9] = target: Hexokinase HKDC1 (Homo sapiens, UniProt Q2TB90); test: activation of HKDC1 glucose phosphorylation – biochemical, W721R variant, dose response (AID 504730); assay type: functional
# [10] = target: T4, Runt-related transcription factor 1/Core-binding factor subunit beta (Homo sapiens, UniProt Q01196+Q13951); test: Confirmation of compounds inhibiting the binding between the RUNX1 Runt domain and CBFb-SMMHC via a time resolved fluorescence resonance energy transfer (TR-FRET) assay. [Related pubchem assays (depositor defined):AID1434, AID1438, AID1496, AID1560, AID1645]; assay type: protein assay
# T4 sequence (Q01196 whole entry, the tested form may be a part): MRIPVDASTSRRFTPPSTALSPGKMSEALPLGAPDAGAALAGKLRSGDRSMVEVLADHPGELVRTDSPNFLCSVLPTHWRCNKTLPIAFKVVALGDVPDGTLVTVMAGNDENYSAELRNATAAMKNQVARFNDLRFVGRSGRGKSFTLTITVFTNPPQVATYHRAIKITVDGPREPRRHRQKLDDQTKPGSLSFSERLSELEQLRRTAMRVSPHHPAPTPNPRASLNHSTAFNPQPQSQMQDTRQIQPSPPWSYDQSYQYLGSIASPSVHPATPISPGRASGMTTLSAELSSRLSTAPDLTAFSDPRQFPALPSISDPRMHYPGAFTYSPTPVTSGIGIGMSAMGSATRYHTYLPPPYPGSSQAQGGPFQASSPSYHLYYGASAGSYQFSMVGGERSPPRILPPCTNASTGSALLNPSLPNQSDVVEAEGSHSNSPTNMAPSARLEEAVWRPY
# T4 sequence (Q13951 whole entry, the tested form may be a part): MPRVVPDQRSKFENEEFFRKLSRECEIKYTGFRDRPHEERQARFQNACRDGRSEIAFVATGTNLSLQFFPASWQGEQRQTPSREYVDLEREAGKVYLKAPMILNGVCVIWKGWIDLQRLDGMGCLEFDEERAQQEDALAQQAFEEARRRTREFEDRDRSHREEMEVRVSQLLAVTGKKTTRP
# [11] = target: T4, Runt-related transcription factor 1/Core-binding factor subunit beta; test: Confirmation of compounds inhibiting the binding between the RUNX1 Runt domain and CBFb-SMMHC via a fluorescence resonance energy transfer (FRET) assay. [Related pubchem assays (depositor defined):AID1434, AID1438, AID1496, AID1550, AID1645]; assay type: protein assay
# [12] = target: T4, Runt-related transcription factor 1/Core-binding factor subunit beta; test: Runt domain/CBFb-SMMHC interaction disruptors – biochemical, TR-FRET (AID 1438); assay type: protein assay
# [13] = target: Dual specificity tyrosine-phosphorylation-regulated kinase 1A (Rattus norvegicus, UniProt Q63470); assay type: biochemical, Homo sapiens
# [14] = target: T4, Runt-related transcription factor 1/Core-binding factor subunit beta; test: disruptors of Runt domain/CBFb-SMMHC interaction – biochemical, FRET, Cerulean-Runt, Venus-CBFb-SMMHC, uHTS, […] (AID 1434); assay type: protein assay
# [15] = target: Voltage-dependent T-type calcium channel subunit alpha-1H (Homo sapiens, UniProt O95180); test: human CACNA1H calcium influx blockade – cell-based, synthetic library set 1, calcium flux (AID 493022); assay type: functional
# [16] = target: Hexokinase (Trypanosoma brucei, UniProt Q38C41); test: Confirmation assay for inhibitors of Trypanosoma brucei hexokinase 1-Analogue-first series. [Related pubchem assays (depositor defined):AID1430, AID1632, AID2516, AID2560, AID2579, AID2600, AID449725, AID492951]; assay type: functional
# Hexokinase, sequence (Q38C41 whole entry): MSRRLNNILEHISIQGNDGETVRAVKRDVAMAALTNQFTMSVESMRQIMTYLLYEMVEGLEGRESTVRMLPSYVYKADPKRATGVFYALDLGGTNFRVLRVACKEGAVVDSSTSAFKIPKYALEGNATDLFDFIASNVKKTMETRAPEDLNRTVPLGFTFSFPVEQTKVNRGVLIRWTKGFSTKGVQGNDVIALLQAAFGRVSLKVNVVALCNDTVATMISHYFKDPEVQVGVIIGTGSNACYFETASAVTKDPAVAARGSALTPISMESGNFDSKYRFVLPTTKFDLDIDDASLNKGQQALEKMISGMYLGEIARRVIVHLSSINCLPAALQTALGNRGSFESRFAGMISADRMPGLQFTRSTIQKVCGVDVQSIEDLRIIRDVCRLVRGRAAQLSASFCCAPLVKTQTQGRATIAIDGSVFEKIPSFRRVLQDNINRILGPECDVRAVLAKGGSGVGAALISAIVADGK
# [17] = target: Mu-type opioid receptor (Homo sapiens, UniProt P35372); test: SAR Analysis of Antagonists of the MOR Receptor using an Image-Based Assay - Set 3. [Related pubchem assays (depositor defined):AID1777, AID1785, AID1786, AID1966, AID2133, AID2136, AID2284, AID2285, AID2420]; assay type: functional
# Mu-type opioid receptor, sequence (P35372 whole entry): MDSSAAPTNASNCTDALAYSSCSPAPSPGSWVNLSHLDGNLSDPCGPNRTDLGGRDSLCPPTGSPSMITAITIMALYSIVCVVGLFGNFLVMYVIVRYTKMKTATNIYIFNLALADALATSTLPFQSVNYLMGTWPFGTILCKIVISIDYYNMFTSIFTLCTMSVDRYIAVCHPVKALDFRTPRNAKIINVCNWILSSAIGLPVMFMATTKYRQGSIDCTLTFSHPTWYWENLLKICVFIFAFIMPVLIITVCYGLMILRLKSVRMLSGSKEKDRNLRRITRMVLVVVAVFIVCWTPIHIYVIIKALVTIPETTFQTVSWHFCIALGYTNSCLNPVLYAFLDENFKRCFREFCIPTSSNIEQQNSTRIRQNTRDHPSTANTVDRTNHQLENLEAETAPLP
# [18] = target: Delta-type opioid receptor (Homo sapiens, UniProt P41143); test: SAR Analysis of Antagonists of the DOR Receptor using an Image-Based Assay - Set 3. [Related pubchem assays (depositor defined):AID1777, AID1785]; assay type: functional;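 further: U2OS cells expressing DOR1 and beta-arrestin GFP stimulated with 100 nM SNC80; imaging of GFP-tagged beta-arrestin moving into spots after receptor activation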
# Delta-type opioid receptor, sequence (P41143 whole entry): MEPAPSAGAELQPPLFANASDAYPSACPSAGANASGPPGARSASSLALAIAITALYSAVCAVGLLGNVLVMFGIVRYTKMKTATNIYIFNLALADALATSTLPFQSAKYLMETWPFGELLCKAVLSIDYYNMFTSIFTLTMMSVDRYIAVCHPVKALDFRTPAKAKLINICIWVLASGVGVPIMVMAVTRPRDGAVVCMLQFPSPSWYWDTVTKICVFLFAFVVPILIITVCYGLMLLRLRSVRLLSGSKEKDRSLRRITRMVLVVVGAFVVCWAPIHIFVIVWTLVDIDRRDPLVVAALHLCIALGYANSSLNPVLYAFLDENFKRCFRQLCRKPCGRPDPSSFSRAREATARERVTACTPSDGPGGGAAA
# [19] = target: Nonstructural protein 1 (Influenza A virus, UniProt Q194T2); assay type: functional, Influenza A virus (A/California/07/2009(H1N1))
# Nonstructural protein 1, sequence (Q194T2 whole entry): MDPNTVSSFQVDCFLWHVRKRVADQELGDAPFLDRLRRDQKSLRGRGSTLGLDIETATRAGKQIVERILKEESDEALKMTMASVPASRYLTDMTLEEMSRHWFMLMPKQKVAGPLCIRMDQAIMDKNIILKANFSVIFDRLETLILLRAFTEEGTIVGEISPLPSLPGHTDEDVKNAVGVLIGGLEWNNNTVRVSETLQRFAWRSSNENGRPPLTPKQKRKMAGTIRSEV
compound,measurement,setting,value
N=C1SCC(=O)N1c1ncc(Cc2ccccc2Cl)s1,EC50,[1],1.16 µM (active)
same,IC50,[2],> 66.6 µM (inactive)
same,IC50,[3],3 µM (active)
same,EC50,[4],> 29.9 µM (not active)
same,IC50,[5],> 32 µM
same,EC50,[6],> 31.5 µM (inactive)
same,IC50,[7],6.6 µM (active)
CCOC(=O)c1c(C)[nH]c(C2=NN=C(Nc3ccc(OCC)cc3)SC2)c1C,EC50,[8],21.1 µM (inactive)
same,EC50,[9],19.4 µM (active)
Cc1ccc(/C=C(\C#N)C(=O)Nc2cccc3ncccc23)o1,IC50,[10],> 25 µM (inactive)
same,IC50,[11],26.6 µM (active)
same,IC50,[12],17.4 µM (active)
same,AC50,[13],0.701 µM (active)
same,IC50,[14],23.6 µM (active)
O=C(COc1ccccc1Cl)Nc1nnc(-c2ccc3ccccc3c2)o1,EC50,[15],4.8 µM (active)
Cc1ccccc1N1Cc2ccccc2C1=O,IC50,[16],> 25 µM (inactive)
COc1ccc(N2CCN(CCCNC(=O)Cn3c(=O)c4cccn4c4c(C)ccnc43)CC2)cc1,IC50,[17],> 32 µM (inactive)
same,IC50,[18],> 32 µM (inactive)
Nc1[nH]n(-c2ccccc2)c(=O)c1N=Nc1ccc2c(c1)OCCO2,IC50,[19],28.8 µM (active)
